Measured values published in PubChem BioAssay (NCI).
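Five compound concentrations were applied to cells in 96-well plates for 48 hours; endpoints were derived by simple linear interpolation of the resulting dose-response curve. Abbreviation: GI50, concentration required for 50% inhibition of growth. The concentration for full growth arrest is given as TGI.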

Experiments:
Test in all cases: growth of human tumour cells (NCI), 48 h
[1] = system: IGROV1 ovarian
[2] = system: HL-60(TB) leukemia
[3] = system: NCI-H522 lung
[4] = system: LOX IMVI melanoma
[5] = system: EKVX NSCLC
[6] = system: K-562 leukemia
[7] = system: NCI-H23 lung
[8] = system: SW-620 colon
[9] = system: MDA-MB-435
[10] = system: CAKI-1 renal

| Structure (SMILES) | GI50 [1] | TGI [1] | GI50 [2] | TGI [2] | GI50 [3] | TGI [3] | GI50 [4] | TGI [4] | GI50 [5] | TGI [5] | GI50 [6] | TGI [6] | GI50 [7] | TGI [7] | GI50 [8] | TGI [8] | GI50 [9] | TGI [9] | GI50 [10] | TGI [10] |
| --- | --- | --- | --- | --- | --- | --- | --- | --- | --- | --- | --- | --- | --- | --- | --- | --- | --- | --- | --- | --- |
| Oc1ccc2c(=S)cc(-c3ccc(Br)cc3)oc2c1O | 2.56 µM | 9.96 µM | 1.66 µM | 6.24 µM | 1.16 µM | 3.88 µM | 1.18 µM | 3.87 µM | 17.9 µM | 56.6 µM | 2.47 µM | > 100 µM | 1.52 µM | 6.38 µM | 2.6 µM | 21.6 µM | 2.98 µM | > 100 µM | 2.65 µM | 15.5 µM |
| Cc1ccc(N(C=O)c2c([N+](=O)[O-])cc([N+](=O)[O-])c3c2=[N+]([O-])CN=3)cc1 |  | > 100 µM |  | 61.3 µM |  | 48.2 µM |  | 90.3 µM |  | > 100 µM |  | 82.7 µM |  | 68.1 µM |  | > 100 µM |  | > 100 µM |  | > 100 µM |
| O=C1C=C(NCCO)c2nccc3c2c1nc1ccccc13 | 20.4 µM | > 100 µM | 14.2 µM | > 100 µM | 22.5 µM | 85 µM | 15.8 µM | 95 µM | 26.5 µM | 92.2 µM | 31.5 µM | > 100 µM | 19.1 µM | 67.3 µM | 15.5 µM | > 100 µM | 29.3 µM | > 100 µM | 23.3 µM | 82.2 µM |
| C[C@]12CC[C@H](O[C@@H]3O[C@H](CO[C@@H]4O[C@H](CO)[C@@H](O)[C@H](O)[C@H]4O)[C@@H](O)[C@H](O)[C@H]3O)C[C@@H]1CC[C@@H]1[C@@H]2CC[C@]2(C)[C@@H](C3=CC(=O)OC3)CC[C@]12O |  | 56.3 µM |  | 54.9 µM |  | 46.7 µM |  | 65.6 µM |  | 40.4 µM |  | > 100 µM |  | 28.1 µM |  | > 100 µM |  | > 100 µM |  | > 58.9 µM |
| Cn1ncc(C#N)c1-c1ccc2c(c1)CN([C@H](CN)Cc1cccc(F)c1)C2=O | 0.0489 µM | 1.59 µM | 22.1 µM | 47.8 µM | 17.6 µM | 60.3 µM | 20.3 µM | > 100 µM | 5.63 µM | > 92.1 µM | 27.4 µM | > 100 µM | 20 µM | > 100 µM | 23.3 µM | > 100 µM | 7.56 µM | > 67.7 µM |  |  |
| C=C1C(=O)O[C@H]2[C@H]1CC/C(COC(=O)c1cccnc1N)=C\CC[C@@]1(C)O[C@@H]21 | 2.56 µM | 11.6 µM | 0.262 µM | 0.749 µM | 0.379 µM | 2 µM | 3.18 µM | 14 µM | 3.21 µM | 25.1 µM | 0.396 µM | 14.1 µM | 5.56 µM | 24.5 µM | 0.583 µM | 3.82 µM | 2.58 µM | 12 µM |  |  |
| CCN(CC)CCNC(=O)c1cccc2c1-c1ccccc1C2=O | > 100 µM | > 100 µM |  |  | > 100 µM | > 100 µM | > 100 µM | > 100 µM | > 100 µM | > 100 µM | > 100 µM | > 100 µM | > 100 µM | > 100 µM | 90.1 µM | > 100 µM | > 100 µM | > 100 µM | > 100 µM | > 100 µM |
| COC(=O)C1C(C(=O)O)C2(c3ccccc3)C(=O)C1(c1ccccc1)C(c1ccccc1)=C2c1ccccc1 (stereo not drawn) | 17.2 µM | 33 µM |  |  | 16 µM | 34.1 µM | 27.8 µM | 89.7 µM | 18.8 µM | 42.3 µM | 21.8 µM | > 100 µM | 16.5 µM | 31.5 µM | 19.8 µM | 40.2 µM | 24.4 µM | 58.9 µM | 20.2 µM | 40.9 µM |
| COc1cccc(Nc2ncnc3cc(NC(=O)CCl)ccc23)c1 | 0.568 µM | 2.25 µM | 1.27 µM | 3.54 µM | 0.388 µM | 1.63 µM |  |  | 1.56 µM | 4.49 µM | 0.343 µM | 2 µM | 1.61 µM | 3.92 µM | 0.612 µM | 2.1 µM | 0.821 µM | 2.21 µM | 1.06 µM | 2.31 µM |
| COc1cc(-c2nn(-c3ccc(NC(=O)Nc4cc(C(F)(F)F)cc(C(F)(F)F)c4)cc3)cc2-c2ccncc2)ccc1Cl | 2.65 µM | 8.25 µM | 3.04 µM | > 100 µM | 2.25 µM | 5.99 µM |  |  | 1.43 µM | 3.48 µM | 2.48 µM | > 100 µM | 2.01 µM | 5.56 µM | 1.87 µM | 3.84 µM | 1.88 µM | 3.99 µM | 1.97 µM | 6.73 µM |
